Data from patent US20250101023A1, “HETEROARYL DERIVATIVE AND USES THEREOF” (IUCF-HYU (INDUSTRY-UNIVERSITY COOPERATION FOUNDATION …, priority 2022, published 2025).

How the values were obtained:
STK39/STLK3 = STK39/STLK3 (Homo sapiens (Human), UniProt Q9UEW8); experiment: Kinome-wide profiling; type: biochemical; settings: read-out: % Residual Activity (mean)
STK38L/NDR2 = STK38L/NDR2 (Homo sapiens (Human), UniProt Q9Y2H1); experiment: Kinome-wide profiling; type: biochemical; settings: read-out: % Residual Activity (mean)
ASK1/MAP3K5 = ASK1/MAP3K5 (Homo sapiens (Human), UniProt Q99683); experiment: Kinome-wide profiling; type: biochemical; settings: read-out: % Residual Activity (mean)
Chain of ASK1/MAP3K5 (Q99683 whole entry): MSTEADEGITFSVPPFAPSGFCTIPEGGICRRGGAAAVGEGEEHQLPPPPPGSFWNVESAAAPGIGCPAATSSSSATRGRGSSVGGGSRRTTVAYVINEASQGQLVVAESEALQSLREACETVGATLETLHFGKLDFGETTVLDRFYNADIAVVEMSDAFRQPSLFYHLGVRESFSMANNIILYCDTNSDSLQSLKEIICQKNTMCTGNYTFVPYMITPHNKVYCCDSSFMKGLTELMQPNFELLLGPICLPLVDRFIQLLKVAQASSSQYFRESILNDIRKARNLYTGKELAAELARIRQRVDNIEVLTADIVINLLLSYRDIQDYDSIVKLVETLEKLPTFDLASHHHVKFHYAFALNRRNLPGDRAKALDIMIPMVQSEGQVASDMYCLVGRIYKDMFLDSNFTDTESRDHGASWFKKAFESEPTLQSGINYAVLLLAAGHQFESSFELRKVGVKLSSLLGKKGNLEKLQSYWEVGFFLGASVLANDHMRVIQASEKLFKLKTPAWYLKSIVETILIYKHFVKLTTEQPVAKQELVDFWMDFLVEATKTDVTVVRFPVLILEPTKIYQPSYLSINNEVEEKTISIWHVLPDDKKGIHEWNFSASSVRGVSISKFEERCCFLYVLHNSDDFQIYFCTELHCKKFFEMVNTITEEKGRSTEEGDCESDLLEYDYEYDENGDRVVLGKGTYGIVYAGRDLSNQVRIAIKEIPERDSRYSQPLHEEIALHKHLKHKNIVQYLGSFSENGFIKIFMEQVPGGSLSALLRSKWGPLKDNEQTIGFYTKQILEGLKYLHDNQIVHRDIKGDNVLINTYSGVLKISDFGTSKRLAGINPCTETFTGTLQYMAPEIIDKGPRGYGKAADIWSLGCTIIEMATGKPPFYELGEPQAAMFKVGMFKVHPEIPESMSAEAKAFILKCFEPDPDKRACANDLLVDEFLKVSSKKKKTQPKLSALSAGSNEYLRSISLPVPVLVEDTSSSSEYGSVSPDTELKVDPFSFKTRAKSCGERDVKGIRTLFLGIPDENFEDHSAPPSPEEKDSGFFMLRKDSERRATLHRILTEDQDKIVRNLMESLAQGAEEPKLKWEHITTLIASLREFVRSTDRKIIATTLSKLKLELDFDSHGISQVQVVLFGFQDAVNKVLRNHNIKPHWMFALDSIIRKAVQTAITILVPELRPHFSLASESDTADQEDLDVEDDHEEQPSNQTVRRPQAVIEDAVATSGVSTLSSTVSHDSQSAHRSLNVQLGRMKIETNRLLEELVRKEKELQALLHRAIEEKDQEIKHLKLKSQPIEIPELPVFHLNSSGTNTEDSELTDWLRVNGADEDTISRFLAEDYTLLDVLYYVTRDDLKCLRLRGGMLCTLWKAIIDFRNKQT

TNIK = TNIK (Homo sapiens (Human), UniProt Q9UKE5); experiment: Kinome-wide profiling; type: biochemical; settings: read-out: % Residual Activity (mean)
SGK1 = SGK1 (Homo sapiens (Human), UniProt O00141); experiment: Kinome-wide profiling; type: biochemical; settings: read-out: % Residual Activity (mean)
CYP2D6 = CYP2D6 (Homo sapiens (Human), UniProt P10635); experiment: CYP inhibitory activity; type: in vitro ADME; settings: read-out: CYP % activity at 10 μM concentration 2D6
Experimental: (§1) 5 derivatives were evaluated for in vitro metabolic stability in liver microsomes from three different species (human, dog, mouse) and for inhibitory activity against 5 representative cytochrome P450 enzymes (CYPs)(Table 3). In terms of liver microsomal stability, the 2′-pyridyl group is more suitable than the α-methyl-4′-pyridyl group as the terminal aromatic group at position 6, and the aminopyrimidyl group is better than the aminopyridyl group as a substituent at position 2.

CYP2C9 = CYP2C9 (Homo sapiens (Human), UniProt P11712); experiment: CYP inhibitory activity; type: in vitro ADME; settings: read-out: CYP % activity at 10 μM concentration 2C9
Experimental: as §1

CYP2C19 = CYP2C19 (Homo sapiens (Human), UniProt P33261); experiment: CYP inhibitory activity; type: in vitro ADME; settings: read-out: CYP % activity at 10 μM concentration 2C19
Experimental: as §1

CYP3A4 = CYP3A4 (Homo sapiens (Human), UniProt P08684); experiment: CYP inhibitory activity; type: in vitro ADME; settings: read-out: CYP % activity at 10 μM concentration 3A4
Chain of CYP3A4 (P08684 whole entry): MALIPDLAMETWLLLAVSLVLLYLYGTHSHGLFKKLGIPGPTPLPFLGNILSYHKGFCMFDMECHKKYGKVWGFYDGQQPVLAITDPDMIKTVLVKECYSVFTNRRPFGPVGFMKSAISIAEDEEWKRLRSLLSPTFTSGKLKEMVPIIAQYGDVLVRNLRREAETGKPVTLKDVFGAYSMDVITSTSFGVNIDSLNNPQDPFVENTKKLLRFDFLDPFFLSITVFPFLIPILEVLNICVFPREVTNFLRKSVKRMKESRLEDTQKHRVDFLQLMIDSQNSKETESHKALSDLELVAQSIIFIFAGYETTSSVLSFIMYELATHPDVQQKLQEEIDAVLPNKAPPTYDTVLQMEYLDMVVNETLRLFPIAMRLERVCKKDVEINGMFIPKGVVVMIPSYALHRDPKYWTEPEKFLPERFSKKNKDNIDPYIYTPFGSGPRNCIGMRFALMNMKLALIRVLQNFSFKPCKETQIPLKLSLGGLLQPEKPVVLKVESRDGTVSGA
Experimental: as §1

MEK3 = MEK3 (Homo sapiens (Human), UniProt P46734); experiment: Kinome-wide profiling; type: biochemical; settings: read-out: % Residual Activity (mean)
FLT3 = FLT3 (Homo sapiens (Human), UniProt P36888); experiment: Kinome-wide profiling; type: biochemical; settings: read-out: % Residual Activity (mean)
CLK1 = CLK1 (Homo sapiens (Human), UniProt P49759); experiment: Kinome-wide profiling; type: biochemical; settings: read-out: % Residual Activity (mean)
CDC7/DBF4 = CDC7/DBF4 (Homo sapiens (Human), UniProt O00311); experiment: Kinome-wide profiling; type: biochemical; settings: read-out: % Residual Activity (mean)
Chain of CDC7/DBF4 (O00311 whole entry): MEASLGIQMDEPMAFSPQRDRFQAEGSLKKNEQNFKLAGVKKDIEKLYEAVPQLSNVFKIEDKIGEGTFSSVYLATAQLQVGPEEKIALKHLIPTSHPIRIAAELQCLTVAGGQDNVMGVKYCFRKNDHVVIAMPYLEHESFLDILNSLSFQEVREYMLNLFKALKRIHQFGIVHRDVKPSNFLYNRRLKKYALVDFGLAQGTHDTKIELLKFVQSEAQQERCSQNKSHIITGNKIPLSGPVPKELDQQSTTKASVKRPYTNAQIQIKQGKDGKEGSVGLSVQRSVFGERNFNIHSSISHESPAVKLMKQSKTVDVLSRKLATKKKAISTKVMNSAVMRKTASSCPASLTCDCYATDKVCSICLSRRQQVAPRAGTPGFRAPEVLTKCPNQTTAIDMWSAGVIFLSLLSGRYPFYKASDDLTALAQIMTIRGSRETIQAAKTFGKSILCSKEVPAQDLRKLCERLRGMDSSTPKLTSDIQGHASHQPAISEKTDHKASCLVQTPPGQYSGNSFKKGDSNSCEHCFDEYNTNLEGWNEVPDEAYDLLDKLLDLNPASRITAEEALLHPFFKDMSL
Chain of CDC7/DBF4 (Q9UBU7 whole entry partner): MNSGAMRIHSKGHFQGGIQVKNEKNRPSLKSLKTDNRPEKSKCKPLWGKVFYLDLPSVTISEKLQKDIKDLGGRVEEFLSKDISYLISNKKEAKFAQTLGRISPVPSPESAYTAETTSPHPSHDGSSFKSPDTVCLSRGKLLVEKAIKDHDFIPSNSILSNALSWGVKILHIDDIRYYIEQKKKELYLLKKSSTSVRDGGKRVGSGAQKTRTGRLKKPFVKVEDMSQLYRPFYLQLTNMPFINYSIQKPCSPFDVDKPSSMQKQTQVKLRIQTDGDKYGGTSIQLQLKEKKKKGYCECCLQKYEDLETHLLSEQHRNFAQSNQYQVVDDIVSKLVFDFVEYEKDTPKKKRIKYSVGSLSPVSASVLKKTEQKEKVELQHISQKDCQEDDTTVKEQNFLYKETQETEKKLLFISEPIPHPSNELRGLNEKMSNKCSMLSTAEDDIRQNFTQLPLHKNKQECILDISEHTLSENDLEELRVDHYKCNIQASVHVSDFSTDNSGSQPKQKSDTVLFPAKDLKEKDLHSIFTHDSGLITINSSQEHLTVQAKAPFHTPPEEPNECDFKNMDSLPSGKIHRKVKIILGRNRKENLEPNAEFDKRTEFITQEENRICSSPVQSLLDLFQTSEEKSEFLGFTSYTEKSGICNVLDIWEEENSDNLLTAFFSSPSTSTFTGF

MLCK2/MYLK2 = MLCK2/MYLK2 (Homo sapiens (Human), UniProt Q9H1R3); experiment: Kinome-wide profiling; type: biochemical; settings: read-out: % Residual Activity (mean)
MYO3A = MYO3A (Homo sapiens (Human), UniProt Q8NEV4); experiment: Kinome-wide profiling; type: biochemical; settings: read-out: % Residual Activity (mean)
EPHA4 = EPHA4 (Homo sapiens (Human), UniProt P54764); experiment: Kinome-wide profiling; type: biochemical; settings: read-out: % Residual Activity (mean)
DDR1 = DDR1 (Homo sapiens (Human), UniProt Q08345); experiment: Kinome-wide profiling; type: biochemical; settings: read-out: % Residual Activity (mean)
SBK1 = SBK1 (Homo sapiens (Human), UniProt Q52WX2); experiment: Kinome-wide profiling; type: biochemical; settings: read-out: % Residual Activity (mean)
PASK = PASK (Homo sapiens (Human), UniProt Q96RG2); experiment: Kinome-wide profiling; type: biochemical; settings: read-out: % Residual Activity (mean)
IRAK1 = IRAK1 (Homo sapiens (Human), UniProt P51617); experiment: Kinome-wide profiling; type: biochemical; settings: read-out: % Residual Activity (mean)
TLK1 = TLK1 (Homo sapiens (Human), UniProt Q9UKI8); experiment: Kinome-wide profiling; type: biochemical; settings: read-out: % Residual Activity (mean)
cyclinK = experiment: Western blot, cyclinK degradation; type: cell-based; settings: SK-Br3 and HCC1954 cell lines, 40 and 200 nM, 2 hours
TESK1 = TESK1 (Homo sapiens (Human), UniProt Q15569); experiment: Kinome-wide profiling; type: biochemical; settings: read-out: % Residual Activity (mean)
LCK = LCK (Homo sapiens (Human), UniProt P06239); experiment: Kinome-wide profiling; type: biochemical; settings: read-out: % Residual Activity (mean)
Chain of LCK (P06239 whole entry): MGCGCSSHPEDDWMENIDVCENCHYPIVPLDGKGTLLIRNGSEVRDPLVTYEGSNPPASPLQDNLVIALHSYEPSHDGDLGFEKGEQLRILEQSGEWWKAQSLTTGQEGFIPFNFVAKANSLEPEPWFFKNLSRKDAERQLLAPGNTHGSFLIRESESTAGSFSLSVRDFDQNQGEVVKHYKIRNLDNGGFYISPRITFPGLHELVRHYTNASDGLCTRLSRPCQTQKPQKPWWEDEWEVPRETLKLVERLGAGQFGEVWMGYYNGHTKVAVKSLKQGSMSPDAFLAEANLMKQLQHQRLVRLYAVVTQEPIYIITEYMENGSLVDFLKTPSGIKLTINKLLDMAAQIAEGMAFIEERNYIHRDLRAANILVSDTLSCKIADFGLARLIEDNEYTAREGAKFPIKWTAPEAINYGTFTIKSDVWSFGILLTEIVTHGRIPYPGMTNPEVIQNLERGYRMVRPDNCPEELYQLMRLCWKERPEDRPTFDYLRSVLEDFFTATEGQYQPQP

PKCmu/PRKD1 = PKCmu/PRKD1 (Homo sapiens (Human), UniProt Q15139); experiment: Kinome-wide profiling; type: biochemical; settings: read-out: % Residual Activity (mean)
MARK4 = MARK4 (Homo sapiens (Human), UniProt Q96L34); experiment: Kinome-wide profiling; type: biochemical; settings: read-out: % Residual Activity (mean)
ERN2/IRE2 = ERN2/IRE2 (Homo sapiens (Human), UniProt Q76MJ5); experiment: Kinome-wide profiling; type: biochemical; settings: read-out: % Residual Activity (mean)
LKB1 = LKB1 (Homo sapiens (Human), UniProt Q15831); experiment: Kinome-wide profiling; type: biochemical; settings: read-out: % Residual Activity (mean)
Chain of LKB1 (Q15831 whole entry): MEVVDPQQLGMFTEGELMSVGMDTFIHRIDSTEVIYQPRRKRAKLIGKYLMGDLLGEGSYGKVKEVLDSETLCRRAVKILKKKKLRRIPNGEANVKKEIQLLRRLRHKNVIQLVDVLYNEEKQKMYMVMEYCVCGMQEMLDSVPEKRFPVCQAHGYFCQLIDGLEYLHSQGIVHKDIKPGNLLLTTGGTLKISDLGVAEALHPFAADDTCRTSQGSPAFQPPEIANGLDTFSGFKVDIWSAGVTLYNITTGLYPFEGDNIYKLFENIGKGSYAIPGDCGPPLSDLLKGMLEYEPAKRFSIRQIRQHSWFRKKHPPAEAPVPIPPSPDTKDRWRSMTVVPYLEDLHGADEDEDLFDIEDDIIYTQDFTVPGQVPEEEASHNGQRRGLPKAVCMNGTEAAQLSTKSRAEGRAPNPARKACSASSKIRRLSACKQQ
Chain of LKB1 (Q7RTN6 whole entry partner): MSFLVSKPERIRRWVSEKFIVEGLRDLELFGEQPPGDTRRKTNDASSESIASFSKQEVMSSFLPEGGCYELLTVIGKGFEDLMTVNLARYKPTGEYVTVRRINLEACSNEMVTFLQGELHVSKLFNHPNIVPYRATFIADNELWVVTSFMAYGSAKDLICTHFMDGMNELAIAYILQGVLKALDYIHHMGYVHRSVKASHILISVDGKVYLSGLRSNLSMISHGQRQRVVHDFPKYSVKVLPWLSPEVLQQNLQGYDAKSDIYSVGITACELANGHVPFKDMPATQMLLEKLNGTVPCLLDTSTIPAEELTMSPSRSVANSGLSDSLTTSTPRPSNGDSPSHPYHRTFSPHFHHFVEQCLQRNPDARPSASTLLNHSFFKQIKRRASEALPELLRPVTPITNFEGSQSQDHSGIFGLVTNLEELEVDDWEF
Chain of LKB1 (Q9Y376 whole entry partner): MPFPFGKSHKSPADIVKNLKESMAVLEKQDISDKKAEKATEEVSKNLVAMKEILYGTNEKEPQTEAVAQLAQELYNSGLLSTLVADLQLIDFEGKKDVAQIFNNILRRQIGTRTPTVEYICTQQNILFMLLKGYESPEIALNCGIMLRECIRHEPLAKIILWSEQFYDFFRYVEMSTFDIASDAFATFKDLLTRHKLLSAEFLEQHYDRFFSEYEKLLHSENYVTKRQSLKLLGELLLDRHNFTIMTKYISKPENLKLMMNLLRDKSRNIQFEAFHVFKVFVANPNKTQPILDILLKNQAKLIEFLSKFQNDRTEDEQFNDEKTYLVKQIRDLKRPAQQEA

MARK1 = MARK1 (Homo sapiens (Human), UniProt Q9P0L2); experiment: Kinome-wide profiling; type: biochemical; settings: read-out: % Residual Activity (mean)
MST2/STK3 = MST2/STK3 (Homo sapiens (Human), UniProt Q13188); experiment: Kinome-wide profiling; type: biochemical; settings: read-out: % Residual Activity (mean)
TYK1/LTK = TYK1/LTK (Homo sapiens (Human), UniProt P29376); experiment: Kinome-wide profiling; type: biochemical; settings: read-out: % Residual Activity (mean)

## CCn1cnc2c(NCc3ccc(-c4ccccn4)nc3)nc(-c3ccc(N)nc3)nc21 [Example 53, N-([2,2′-bipyridin]-5-ylmethyl)-2-(6-aminopyridin-3-yl)-9-ethyl-9H-purin-6-amine]
STK39/STLK3
  remaining activity at 10 µM: 29.6%
STK38L/NDR2
  remaining activity at 10 µM: 36.9%
ASK1/MAP3K5
  remaining activity at 10 µM: 18.4%
TNIK
  remaining activity at 10 µM: 69%
SGK1
  remaining activity at 10 µM: 84.9%
CYP2D6
  activity at 10 µM: 81%
CYP2C9
  activity at 10 µM: 57.9%
CYP2C19
  activity at 10 µM: 68.1%
CYP3A4
  activity at 10 µM: 43%
MEK3
  remaining activity at 10 µM: 73.5%
FLT3
  remaining activity at 10 µM: 40.2%
CLK1
  remaining activity at 10 µM: 13.7%
CDC7/DBF4
  remaining activity at 10 µM: 98.2%
MLCK2/MYLK2
  remaining activity at 10 µM: 60%
MYO3A
  remaining activity at 10 µM: 71.3%
EPHA4
  remaining activity at 10 µM: 3.61%
DDR1
  remaining activity at 10 µM: 50.2%
SBK1
  remaining activity at 10 µM: 94.5%
PASK
  remaining activity at 10 µM: 96.3%
IRAK1
  remaining activity at 10 µM: 79%
TLK1
  remaining activity at 10 µM: 67.8%
cyclinK
  cyclinK degradation: induced cyclinK degradation
cyclinK; listed as Compound 53
  cyclinK degradation: cyclinK levels were greatly suppressed in a dose-dependent manner
TESK1
  remaining activity at 10 µM: 93.1%
LCK
  remaining activity at 10 µM: 83.6%
PKCmu/PRKD1
  remaining activity at 10 µM: 70.3%
MARK4
  remaining activity at 10 µM: 66.9%
ERN2/IRE2
  remaining activity at 10 µM: 65.4%
LKB1
  remaining activity at 10 µM: 0%
MARK1
  remaining activity at 10 µM: 81.5%
MST2/STK3
  remaining activity at 10 µM: 53.5%
TYK1/LTK
  remaining activity at 10 µM: 73.6%
